Converted amounts (≈) assume the structure as drawn.
What was measured:
[1] = Kinetic solubility analysis; assay type: physicochemical; settings: 1× PBS, 24.2 °C, aqueous buffer, kinetic from dmso stock; pH 7.4 PBS, 1% DMSO, 24-hour incubation at ambient temperature
Procedure, shortened: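 Compounds from 10 mM DMSO stocks were incubated in 0.1 N HCl or 1× PBS pH 7.4 (1.0% DMSO, 100 μM maximum theoretical) for 24 h at 24.2-27.5 °C, then vacuum filtered. Filtrates were quantified in μM by chemiluminescent nitrogen detection against a calibration curve, corrected for background nitrogen; values for adjacent ring-nitrogen compounds were raised ~25%.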

[2] = Cytotoxicity assay in primary human hepatocytes (PHHs); assay type: cell-based; settings: HBV-infected primary human hepatocytes, HBV-infected PHH, Cell Titer Glo, average of at least two independent experiments
Protocol: Example 107: Cytotoxicity Assay in Primary Human Hepatocytes (PHHs)
The HBV-infected primary human hepatocytes are seeded (20K cells/well in 80 uL of Media) in 384well collagen coated plates pre-spotted with compounds. After 5 days, 40 ul of cell supernatant is removed to quantify HBV DNA levels as described in Example 106. Then, 40 ul Cell Titer Glo Reagent (Promega Catalog Number: G7572) is added to the remaining cells and luminescence is measured on the EnVision microplate reader.

[3] = Cytotoxicity assay in MT-4 cells; assay type: cell-based; settings: human, uninfected MT-4 cells, average of at least two independent experiments, read-out: MT4 CC50
Procedure, shortened: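 Uninfected MT-4 cells were incubated 5 days at 37 °C with 1:3 serially diluted compound in RPMI (10% FBS), with 10 μM puromycin as baseline cytotoxicity. Viability was read by CellTiter-Glo luminescence. Values are concentrations giving 50% luminescence decrease, from sigmoidal dose-response fits.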

[4] = system: HBV; assay: Antiviral (HBV) assay in primary human hepatocytes (PHHs); assay type: cell-based; settings: Hepatitis B virus, Hepatocyte, 120 h; HBV (GTD) infected PHH, 5 days, HBV DNA in supernatant; average of at least two independent experiments
Protocol: Example 106: Antiviral (HBV) Assay in Primary Human Hepatocytes (PHHs)
Cryopreserved PHH were thawed, recovered by centrifugation at 100 g in cryopreserved hepatocyte recovery medium (Thermo Fisher Scientific; CM7500), and plated on collagen matrix (Life Technologies; Catalog Number: R-011-K) coated T225 flasks (Corning CellBIND, Catalog Number: 3293) at a density of 25E6 live cells in 60 mls media. Cells were plated in William's E medium (Thermo Fisher Scientific; A1217601) supplemented with 3.6% hepatocyte thawing and plating supplement (Thermo Fisher Scientific, A15563), 5% fetal bovine serum (Thermo Fisher Scientific; 16000-036), 1 μM dexamethasone (Thermo Fisher Scientific, A15563), and 0.2% Torpedo antibiotic mix (Bioreclamation; Z990008). The plating medium was removed after 14 hours and the cells were subsequently cultured in maintenance medium: William's E medium supplemented with 4% hepatocyte maintenance supplement (Thermo Fisher Scientific; AI15564), 2% fetal bovine serum, 0.1μ M dexamethasone, 1.5% DMSO (Sigma-Aldrich, St. Louis, MO; D8418), and 0.2% Torpedo antibiotic mix. Approximately 24 hours after plating, PHH were infected with HepAD38-derived GTD virus at 500 viral genome equivalents per cell in PHH maintenance medium supplemented with 4% PEG 8000 (Promega, Madison, WI; V3011). Infections were allowed to proceed for 24 hours before removing the remaining extracellular virions by washing with maintenance medium three times. After allowing viral infection to take place for 3 days, the infected cells were harvested from the flasks by trypsinization (0.25X in PBS without Ca/Mg, 25 minutes) following a 4 minute 0.5X Versene (Life Technologies Catalog Number: 15040-066) treatment and two PBS washes. Trypsinized cells were inactivated in 10% FBS containing maintenance medium, centrifuged 6 minutes at 50 g, resuspended in hepatocyte maintenance medium, filtered through a 40 uM cell strainer, and adjusted to a density of 0.25E6 cells/ml. Infected cells were seeded on 384 well collagen coated plates (Greiner, Austria) at a density of 20,000 cells/well containing serially diluted compounds of the present disclosure or DMSO (0.5%) in a final volume of 80 μl. The assay plates were incubated for a period of 5 days and the antiviral activity of the test compounds were assayed by detecting the presence of HBV DNA in the culture supernatant using the QuantiGene™ 2.0 nucleic acid quantification kit (Affymetrix, Santa Clara, CA).

Row | SMILES | solubility kinetic at 24 h [1] | CC50 at 5 days [2] | CC50 at 5 days [3] | EC50 [4]
1 | C[C@H](Cn1cnc2c(N)ncnc21)OCP(=O)(NC(C)(C)C(=O)OC1CC(C2CCC2)C1)NC(C)(C)C(=O)OC1CC(C2CCC2)C1 (stereo partly drawn) [Example 90, Di([1,1′-bi(cyclobutan)]-3-yl) 2,2′-(((((1-(6-amino-9H-purin-9-yl)propan-2-yl)oxy)methyl)phosphoryl)bis(azanediyl))(R)-bis(2-methylpropanoate)] | 7 µg/mL (≈ 10.4 µM) | > 100 nM | 5.51 µM | 2.95 nM
2 | CCCCCCOC(=O)C(C)(C)NP(=O)(CO[C@H](C)Cn1cnc2c(N)ncnc21)NC(C)(C)C(=O)OCCCCCC [Example 1, Dihexyl 2,2′-(((((1-(6-amino-9H-purin-9-yl)propan-2-yl)oxy)methyl)phosphoryl)bis(azanediyl))(R)-bis(2-methylpropanoate)] | 33 µg/mL (≈ 52.7 µM) | > 100 nM | 4.99 µM | 1.96 nM
3 | C[C@H](Cn1cnc2c(N)ncnc21)OCP(=O)(NC(C)(C)C(=O)O[C@H]1C[C@@H](C(C)(C)C)C1)NC(C)(C)C(=O)O[C@H]1C[C@@H](C(C)(C)C)C1 [Example 51, Bis((1S,3S)-3-(tert-butyl)cyclobutyl) 2,2′-((((((R)-1-(6-amino-9H-purin-9-yl)propan-2-yl)oxy)methyl)phosphoryl)bis(azanediyl))bis(2-methylpropanoate)] | 6 µg/mL (≈ 8.85 µM) | > 100 nM | 7.25 µM | 6 nM
4 | C[C@H](Cn1cnc2c(N)ncnc21)OCP(=O)(NC(C)(C)C(=O)O[C@H](C)C1CCCCC1)NC(C)(C)C(=O)O[C@H](C)C1CCCCC1 [Example 55, Bis((R)-1-cyclohexylethyl) 2,2′-((((((R)-1-(6-amino-9H-purin-9-yl)propan-2-yl)oxy)methyl)phosphoryl)bis(azanediyl))bis(2-methylpropanoate)] | < 1 µg/mL | > 100 nM | 9.42 µM | 6.26 nM
5 | C[C@H](Cn1cnc2c(N)ncnc21)OCP(=O)(NC(C)(C)C(=O)OCC1CC2(CCC2)C1)NC(C)(C)C(=O)OCC1CC2(CCC2)C1 (stereo partly drawn) [Example 50, Bis(spiro[3.3]heptan-2-ylmethyl) 2,2′-(((((1-(6-amino-9H-purin-9-yl)propan-2-yl)oxy)methyl)phosphoryl)bis(azanediyl))(R)-bis(2-methylpropanoate)] | < 1 µg/mL | > 100 nM | 8.06 µM | 3.1 nM
6 | C[C@H](Cn1cnc2c(N)ncnc21)OCP(=O)(NC(C)(C)C(=O)OCC1CC2(C1)CC(F)(F)C2)NC(C)(C)C(=O)OCC1CC2(C1)CC(F)(F)C2 [Example 58, Bis((6,6-difluorospiro[3.3]heptan-2-yl)methyl) 2,2′-(((((1-(6-amino-9H-purin-9-yl)propan-2-yl)oxy)methyl)phosphoryl)bis(azanediyl))(R)-bis(2-methylpropanoate)] | 51 µg/mL (≈ 68.4 µM) | > 100 nM | 3.68 µM | 1.26 nM
7 | C[C@H](Cn1cnc2c(N)ncnc21)OCP(=O)(NC(C)(C)C(=O)OCC1CCCCC1)NC(C)(C)C(=O)OCC1CCCCC1 [Example 46, Bis(cyclohexylmethyl) 2,2′-(((((1-(6-amino-9H-purin-9-yl)propan-2-yl)oxy)methyl)phosphoryl)bis(azanediyl))(R)-bis(2-methylpropanoate)] | < 1 µg/mL | > 100 nM | 4.16 µM | 2.51 nM
8 | C[C@H](Cn1cnc2c(N)ncnc21)OCP(=O)(NC(C)(C)C(=O)O[C@H]1CC[C@H](C(F)(F)F)CC1)NC(C)(C)C(=O)O[C@H]1CC[C@H](C(F)(F)F)CC1 [Example 21, Bis(trans-4-(trifluoromethyl)cyclohexyl) 2,2′-((((((R)-1-(6-amino-9H-purin-9-yl)propan-2-yl)oxy)methyl)phosphoryl)bis(azanediyl))bis(2-methylpropanoate)] | 39 µg/mL (≈ 51.5 µM) | > 100 nM | 4.47 µM | 3.55 nM
9 | CCC[C@H]1CC[C@H](COC(=O)C(C)(C)NP(=O)(CO[C@H](C)Cn2cnc3c(N)ncnc32)NC(C)(C)C(=O)OC[C@H]2CC[C@H](CCC)CC2)CC1 [Example 92] | < 1 µg/mL | > 100 nM | 7.99 µM | 4.56 nM
10 | CCCCCCOC(=O)C(C)(C)NP(=O)(CO[C@H](C)Cn1cnc2/c(=N\Cc3oc(=O)oc3C)n(Cc3oc(=O)oc3C)cnc21)NC(C)(C)C(=O)OCCCCCC [Example 84, Dihexyl 2,2′-(((((1-(1-((5-methyl-2-oxo-1,3-dioxol-4-yl)methyl)-6-(((5-methyl-2-oxo-1,3-dioxol-4-yl)methyl)imino)-1,6-dihydro-9H-purin-9-yl)propan-2-yl)oxy)methyl)phosphoryl)bis(azanediyl))(R,E)-bis(2-methylpropanoate)] | 8 µg/mL (≈ 9.41 µM) | > 100 nM | 10.6 µM | 3.37 nM
11 | C[C@H](Cn1cnc2c(N)ncnc21)OCP(=O)(NC(C)(C)C(=O)OC1CC2(CCCCC2)C1)NC(C)(C)C(=O)OC1CC2(CCCCC2)C1 (stereo partly drawn) [Example 86, Di(spiro[3.5]nonan-2-yl) 2,2′-(((((1-(6-amino-9H-purin-9-yl)propan-2-yl)oxy)methyl)phosphoryl)bis(azanediyl))(R)-bis(2-methylpropanoate)] | 2 µg/mL (≈ 2.85 µM) | > 100 nM | 3.73 µM | 3.16 nM
12 | C[C@H](Cn1cnc2c(N)ncnc21)OCP(=O)(NC(C)(C)C(=O)O[C@@H]1C[C@@H]2C[C@@H]2C1)NC(C)(C)C(=O)O[C@@H]1C[C@@H]2C[C@@H]2C1 [Example 60, Di((1R,3R,5S)-bicyclo[3.1.0]hexan-3-yl) 2,2′-((((((R)-1-(6-amino-9H-purin-9-yl)propan-2-yl)oxy)methyl)phosphoryl)bis(azanediyl))bis(2-methylpropanoate)] | 76 µg/mL (≈ 123 µM) | > 100 nM | 3.31 µM | 1.44 nM
13 | C[C@H](Cn1cnc2c(N)ncnc21)OCP(=O)(NC(C)(C)C(=O)OCCC1CCCCC1)NC(C)(C)C(=O)OCCC1CCCCC1 [Example 14, Bis(2-cyclohexylethyl) 2,2′-(((((1-(6-amino-9H-purin-9-yl)propan-2-yl)oxy)methyl)phosphoryl)bis(azanediyl))(R)-bis(2-methylpropanoate)] | 27 µg/mL (≈ 39.8 µM) | > 100 nM | 3.19 µM | 2.57 nM
14 | CCC1(CC)CC(OC(=O)C(C)(C)NP(=O)(CO[C@H](C)Cn2cnc3c(N)ncnc32)NC(C)(C)C(=O)OC2CC(CC)(CC)C2)C1 [Example 49, Bis(3,3-diethylcyclobutyl) 2,2′-(((((1-(6-amino-9H-purin-9-yl)propan-2-yl)oxy)methyl)phosphoryl)bis(azanediyl))(R)-bis(2-methylpropanoate)] | 4 µg/mL (≈ 5.9 µM) | > 100 nM | 5.21 µM | 5.45 nM
15 | C[C@H](Cn1cnc2c(N)ncnc21)OCP(=O)(NC(C)(C)C(=O)OCC1CCC(F)(F)CC1)NC(C)(C)C(=O)OCC1CCC(F)(F)CC1 [Example 88, Bis((4,4-difluorocyclohexyl)methyl) 2,2′-(((((1-(6-amino-9H-purin-9-yl)propan-2-yl)oxy)methyl)phosphoryl)bis(azanediyl))(R)-bis(2-methylpropanoate)] | 69 µg/mL (≈ 95.6 µM) | > 100 nM | 7.29 µM | 2.5 nM

From US20230303599A1, “PRODRUGS OF PHOSPHONAMIDE NUCLEOTIDE ANALOGUES AND THEIR PHARMACEUTICAL USE” (priority 2020, published 2023)
